Laboratory results from PMC6153800, “Structure-Based Drug Design and Characterization of Sulfonyl-Piperazine Benzothiazinone Inhibitors of DprE1 from Mycobacterium tuberculosis” (Antimicrobial Agents and Chemotherapy, 2018).
Values after ≈ are worked out from the molar mass of the structure shown. Read-outs that look alike come from different tables or passages of the source.

Columns and labels:
[1] = human microsomes; cited from earlier work
[2] = mouse microsomes; cited from earlier work
in vitro = conditions: for microsomal CLint / microsomal CLint at 1 μg/ml: microsomes, pH 7.4; for Microsomal stability / clearance (in words), human: human microsomes; for Microsomal stability / clearance (in words), mouse: mouse microsomes
Procedure: The intrinsic clearance (CLint) of compounds was measured in both mouse and human liver microsomes. Briefly, 100 μg of mouse (CD-1) or human liver microsomes (both from Invitrogen) were mixed in 0.1 M phosphate buffer (pH 7.4) containing 0.01 μl of compound dissolved in dimethyl sulfoxide (DMSO) at 10 mg/ml in a final volume of 50 μl. In parallel, an NADPH-regenerating system (Promega) was prepared in 0.1 M phosphate buffer (pH 7.4). […] After 0, 5, 15, 30, and 60 min, the reactions were terminated by transferring […] into 100 μl of acetonitrile and placing the mixture on ice for 30 min for full protein precipitation. […] After 0 and 60 min, the reactions were terminated, prepared and analyzed as previously described.

M. tuberculosis H37Rv [3] = test: microbe, parasite or virus in culture; assay type: cell-based
M. tuberculosis H37Rv [4] = tested on: M. tuberculosis H37Rv; design: method as in PMID 24500695; conditions: ref [5]; cited from earlier work
M. tuberculosis H37Rv [5] = test: Murine model of chronic TB; assay type: in vivo, Mycobacterium tuberculosis; conditions: BALB/cByJ mice
[6] = Water solubility, shake flask method; assay type: physicochemical; conditions: for solubility at 3 days: 25 °C, water, thermodynamic from solid
Procedure: Water solubility measurements were performed using the shake flask method ([28]). Approximately 1 ml of water was added to 1 mg of compound in an Eppendorf tube, followed by incubation for 3 days at 25°C with shaking at 800 rpm. Suspensions were centrifuged at 16,100 × g for 10 min, and the supernatant was filtered using 0.22-μm-pore size filters. Filtrates were injected onto a high-performance liquid chromatography (HPLC) column (Dionex), and the amount of compound was quantified using a calibration curve.

HepG2 cells = conditions: for TD50 / Cytotoxicity (in words) / Concentration of mild cytotoxicity: HepG2 cells; for TD50: 3 days; for Selective index: ratio TD50 (HepG2) to MIC99 (H37Rv)
[7] = Mycobacterium tuberculosis, H37RV, REMA, 7H9 broth, 6 days + 24 h resazurin, read-out: MIC99 H37Rv
[8] = 25 mg/kg by gavage 5 days a week for 4 weeks
[9] = 50 mg/kg by gavage 5 days a week for 4 weeks
[10] = Mycobacterium tuberculosis, H37Rv, read-out: MIC

## C[C@H]1COC2(CCN(c3nc(=O)c4cc(C(F)(F)F)cc([N+](=O)[O-])c4s3)CC2)O1 [BTZ043]
[1]
  CLint human microsome: 4.20 μl/min/mg protein
[2]
  CLint mouse microsome: 16.5 μl/min/mg protein

## NC(=O)N1c2ccccc2C=Cc2ccccc21 [Carbamazepine, reference compound]
In vitro; CD-1, mouse
  microsomal CLint: 0.6 µL/min/mg
In vitro; human
  microsomal CLint: 0.4 µL/min/mg

## O=c1nc(N2CCN(CC3CCCCC3)CC2)sc2c([N+](=O)[O-])cc(C(F)(F)F)cc12 [PBTZ169, macozinone, reference compound]
[1]
  CLint human microsome: 28 μl/min/mg protein
M. tuberculosis H37Rv [3]; [7]
  MIC: 0.0002 µg/mL
M. tuberculosis H37Rv [4]
  MIC against M. tuberculosis: 0.3 nM (≈ 0.137 ng/mL)
M. tuberculosis H37Rv [5]; [8]
  Bacterial burden in lungs lower than untreated control: 1.03 log10 CFU
  Bacterial burden in spleens lower than untreated control: 1.47 log10 CFU
[6]
  Times more soluble in water than calculated: 400 times
[2]
  CLint mouse microsome: 36.7 μl/min/mg protein
HepG2 cells
  TD50: 44.00 µg/mL

## CO[C@H]1/C=C/O[C@@]2(C)Oc3c(C)c(O)c4c(O)c(c(/C=N/N5CCN(C)CC5)c(O)c4c3C2=O)NC(=O)/C(C)=C\C=C\[C@H](C)[C@H](O)[C@@H](C)[C@@H](O)[C@@H](C)[C@H](OC(C)=O)[C@@H]1C [Rifampin, reference compound]
M. tuberculosis H37Rv [3]; [7]
  MIC: 0.0008 µg/mL
HepG2 cells
  TD50: 100.00 µg/mL

## Cc1noc(C)c1S(=O)(=O)N1CCN(c2nc(=O)c3cc(C(F)(F)F)cc([N+](=O)[O-])c3s2)CC1 [compound 11326056]
M. tuberculosis H37Rv [3]; [7]
  MIC: 0.06 µg/mL
other
  melting point: 265 to 267 °C

## CCn1cc(S(=O)(=O)N2CCN(c3nc(=O)c4cc(C(F)(F)F)cc([N+](=O)[O-])c4s3)CC2)c(C)n1 [compound 11326058]
M. tuberculosis H37Rv [3]; [7]
  MIC: 0.4 µg/mL
other
  melting point: 218 to 220 °C

## O=c1nc(N2CCN(S(=O)(=O)c3cccs3)CC2)sc2c([N+](=O)[O-])cc(C(F)(F)F)cc12 [compound 11326059]
M. tuberculosis H37Rv [3]; [7]
  MIC: 0.004 µg/mL
other
  melting point: 210 to 214 °C
[6]
  Times less soluble in water than 11626095, 11626092 and 11626091: at least 100 times
  solubility at 3 days: < 0.01 µg/mL
HepG2 cells
  Cytotoxicity (in words): not cytotoxic
  TD50: 100 µg/mL
  Selective index: 25,000
In vitro; CD-1, mouse
  microsomal CLint at 1 μg/ml: 18.6 µL/min/mg
In vitro
  Microsomal stability / clearance (in words), human: medium clearances
  Microsomal stability / clearance (in words), mouse: medium clearances
In vitro; human
  microsomal CLint at 1 μg/ml: 16.8 µL/min/mg

## Cc1nn(C)cc1S(=O)(=O)N1CCN(c2nc(=O)c3cc(C(F)(F)F)cc([N+](=O)[O-])c3s2)CC1 [compound 11326061]
M. tuberculosis H37Rv [3]; [7]
  MIC: 0.4 µg/mL
other
  melting point: 200 to 203 °C

## CC(=O)c1ccc(S(=O)(=O)N2CCN(c3nc(=O)c4cc(C(F)(F)F)cc([N+](=O)[O-])c4s3)CC2)cc1 [compound 11326119]
M. tuberculosis H37Rv [3]; [7]
  MIC: 50 µg/mL
other
  melting point: 280 to 282 °C

## O=c1nc(N2CCN(S(=O)(=O)c3ccc(OC(F)(F)F)cc3)CC2)sc2c([N+](=O)[O-])cc(C(F)(F)F)cc12 [compound 11326120]
M. tuberculosis H37Rv [3]; [7]
  MIC: 0.1 µg/mL

## O=c1nc(N2CCN(S(=O)(=O)c3ccc(Cl)s3)CC2)sc2c([N+](=O)[O-])cc(C(F)(F)F)cc12 [compound 11326121]
M. tuberculosis H37Rv [3]; [7]
  MIC: 0.03 µg/mL
other
  melting point: 210 to 213 °C

## O=c1nc(N2CCN(S(=O)(=O)c3cc(Cl)c(Cl)s3)CC2)sc2c([N+](=O)[O-])cc(C(F)(F)F)cc12 [compound 11326122]
M. tuberculosis H37Rv [3]; [7]
  MIC: 0.8 µg/mL
other
  melting point: 265 to 267 °C

## O=c1nc(N2CCN(S(=O)(=O)c3ccc(C(F)(F)F)cc3)CC2)sc2c([N+](=O)[O-])cc(C(F)(F)F)cc12 [compound 11326123]
M. tuberculosis H37Rv [3]; [7]
  MIC: 0.1 µg/mL
other
  melting point: 222 to 225 °C

## CCCCc1ccc(S(=O)(=O)N2CCN(c3nc(=O)c4cc(C(F)(F)F)cc([N+](=O)[O-])c4s3)CC2)cc1 [compound 11326124]
M. tuberculosis H37Rv [3]; [7]
  MIC: 800 µg/mL
other
  melting point: 226 to 229 °C

## CCC(C)(C)c1ccc(S(=O)(=O)N2CCN(c3nc(=O)c4cc(C(F)(F)F)cc([N+](=O)[O-])c4s3)CC2)cc1 [compound 11326125]
M. tuberculosis H37Rv [3]; [7]
  MIC: 0.5 µg/mL
other
  melting point: 231 to 233 °C

## Cc1oncc1S(=O)(=O)N1CCN(c2nc(=O)c3cc(C(F)(F)F)cc([N+](=O)[O-])c3s2)CC1 [compound 11326126]
M. tuberculosis H37Rv [3]; [7]
  MIC: 1.6 µg/mL
other
  melting point: 281 to 283 °C

## O=c1nc(N2CCN(S(=O)(=O)C3CCCCC3)CC2)sc2c([N+](=O)[O-])cc(C(F)(F)F)cc12 [compound 11326127]
M. tuberculosis H37Rv [3]; Mycobacterium tuberculosis, H37RV
  MIC99: 6 nM (≈ 3.04 ng/mL)
M. tuberculosis H37Rv [3]; [7]
  MIC: 0.006 µg/mL
[6]
  Times less soluble in water than 11626095, 11626092 and 11626091: at least 100 times
  solubility at 3 days: < 0.01 µg/mL
HepG2 cells
  Cytotoxicity (in words): not cytotoxic
  TD50: >100 µg/mL
In vitro; CD-1, mouse
  microsomal CLint at 1 μg/ml: 19 µL/min/mg
In vitro
  Microsomal stability / clearance (in words), human: medium clearances
  Microsomal stability / clearance (in words), mouse: medium clearances
In vitro; human
  microsomal CLint at 1 μg/ml: 21.5 µL/min/mg

## COC(=O)c1sccc1S(=O)(=O)N1CCN(c2nc(=O)c3cc(C(F)(F)F)cc([N+](=O)[O-])c3s2)CC1 [compound 11326128]
M. tuberculosis H37Rv [3]; [7]
  MIC: 0.1 µg/mL
other
  melting point: 127 to 129 °C

## O=c1nc(N2CCN(S(=O)(=O)C3CC3)CC2)sc2c([N+](=O)[O-])cc(C(F)(F)F)cc12 [compound 11626091]
M. tuberculosis H37Rv [3]; H37Rv
  Fold less active than MCZ (MIC99 relative to MCZ): 15 fold
M. tuberculosis H37Rv [3]; [7]
  MIC: 0.003 µg/mL
M. tuberculosis H37Rv [5]; [9]
  Bacterial burden in lungs lower than untreated control: 0.46 log10 CFU
  Bacterial burden in spleens lower than untreated control: 1.03 log10 CFU
other
  melting point: 201 to 204 °C
[6]
  solubility at 3 days: 8.6 ± 3.8 µg/mL (≈ 18.5 µM)
HepG2 cells
  Concentration of mild cytotoxicity: around 10 μg/ml
  TD50: 8.10 µg/mL
  Selective index: 2,700
In vitro; CD-1, mouse
  microsomal CLint at 1 μg/ml: 2.7 µL/min/mg
In vitro
  Microsomal stability / clearance (in words), human: lowest clearances
  Microsomal stability / clearance (in words), mouse: lowest clearances
In vitro; human
  microsomal CLint at 1 μg/ml: 9.7 µL/min/mg

## CCS(=O)(=O)N1CCN(c2nc(=O)c3cc(C(F)(F)F)cc([N+](=O)[O-])c3s2)CC1 [compound 11626092]
M. tuberculosis H37Rv [3]; [7]
  MIC: 0.003 µg/mL
M. tuberculosis H37Rv [3]; [10]
  MIC: 0.003 µg/mL (≈ 0.00663 µM)
other
  melting point: 204 to 207 °C
[6]
  solubility at 3 days: 10.7 ± 4.6 µg/mL (≈ 23.6 µM)
HepG2 cells
  Concentration of mild cytotoxicity: around 10 μg/ml
  TD50: 8.90 µg/mL
  Selective index: 2,967
In vitro; CD-1, mouse
  microsomal CLint at 1 μg/ml: 3 µL/min/mg
In vitro
  Microsomal stability / clearance (in words), human: lowest clearances
  Microsomal stability / clearance (in words), mouse: lowest clearances
In vitro; human
  microsomal CLint at 1 μg/ml: 1.4 µL/min/mg

## CCCCS(=O)(=O)N1CCN(c2nc(=O)c3cc(C(F)(F)F)cc([N+](=O)[O-])c3s2)CC1 [compound 11626093]
M. tuberculosis H37Rv [3]; H37Rv
  Fold less active than MCZ (MIC99 relative to MCZ): 5 fold
  MIC: 1 µg/mL (≈ 2.08 µM)
M. tuberculosis H37Rv [3]; [7]
  MIC: 0.001 µg/mL
other
  melting point: 215 to 219 °C
[6]
  Times less soluble in water than 11626095, 11626092 and 11626091: at least 100 times
  solubility at 3 days: 0.105 ± 0.05 µg/mL (≈ 0.219 µM)
HepG2 cells
  Cytotoxicity (in words): not cytotoxic
  TD50: >100 µg/mL
  Selective index: >100,000
In vitro; CD-1, mouse
  microsomal CLint at 1 μg/ml: 42 µL/min/mg
In vitro
  Microsomal stability / clearance (in words), human: metabolically stable
  Microsomal stability / clearance (in words), mouse: highly unstable
In vitro; human
  microsomal CLint at 1 μg/ml: 6.4 µL/min/mg

## O=c1nc(N2CCN(S(=O)(=O)c3cccc4cnccc34)CC2)sc2c([N+](=O)[O-])cc(C(F)(F)F)cc12 [compound 11626094]
M. tuberculosis H37Rv [3]; [7]
  MIC: 0.01 µg/mL
other
  melting point: 243 to 245 °C
[6]
  Times less soluble in water than 11626095, 11626092 and 11626091: at least 100 times
  solubility at 3 days: 0.088 ± 0.04 µg/mL (≈ 0.16 µM)
HepG2 cells
  Cytotoxicity (in words): not cytotoxic
  TD50: 100.00 µg/mL
  Selective index: 10,000
In vitro; CD-1, mouse
  microsomal CLint at 1 μg/ml: 24 µL/min/mg
In vitro
  Microsomal stability / clearance (in words), human: highly unstable
In vitro; human
  microsomal CLint at 1 μg/ml: 277 µL/min/mg

## CS(=O)(=O)N1CCN(c2nc(=O)c3cc(C(F)(F)F)cc([N+](=O)[O-])c3s2)CC1 [compound 11626095]
M. tuberculosis H37Rv [3]; [7]
  MIC: 0.02 µg/mL
M. tuberculosis H37Rv [3]; [10]
  MIC: 0.02 µg/mL (≈ 0.0456 µM)
other
  melting point: 186 to 188 °C
[6]
  solubility at 3 days: 10.6 ± 1.8 µg/mL (≈ 24.2 µM)
HepG2 cells
  Concentration of mild cytotoxicity: around 10 μg/ml
  TD50: 7.80 µg/mL
  Selective index: 390
In vitro; CD-1, mouse
  microsomal CLint at 1 μg/ml: 0.9 µL/min/mg
In vitro
  Microsomal stability / clearance (in words), human: lowest clearances
  Microsomal stability / clearance (in words), mouse: lowest clearances
In vitro; human
  microsomal CLint at 1 μg/ml: 1 µL/min/mg
